Legend:
[1] = tested on: priming of allogeneic T cell responses; experiment: MLR with splenocytes from inhibitor-treated mice as stimulators; type: in vivo, mouse
Description: FACS quantitation of Mac1^+Gr1^+ MIR cells in spleen (A) and lymph node (B) of C57BL/6 mice treated with the SHIP1 inhibitor (Compound), vehicle (Vehicle) or unmanipulated controls (Normal) as indicated. (C) Mixed-Leukocyte-Reactions (MLR) where splenocytes from SHIP1 inhibitor-treated C57BL6 (H2b) mice were used as stimulators for BALB/C (H2d) responders. In parallel splenocytes from either unmanipulated (Normal) or Vehicle treated C57BL6 mice were used as positive controls for the MLR. […] (D) Human PBMC were pre-treated for 24 hr with 3α-aminocholestane (Compound) or vehicle, irradiated and then used as stimulators for untreated PBMC from a different donor in a one-way MLR. [BALB/C=responder splenocytes not mixed with BL6 stimulators; Stim=irradiated, SHIP1 inhibitor-treated human PBMC absent responder PBMC; Resp=human PBMC responders absent allogeneic stimulators; Media, media to which only [3H]thymidine was added]. […] (E) SHIP1 inhibition increases circulating granulocyte/neutrophil numbers. Mice were treated daily for 7 days with 60 μM SHIP1 inhibitor (Compound), its vehicle (Vehicle) or were unmanipulated (Normal). Absolute peripheral blood granulocyte numbers were determined by an automated blood cell analyzer. […]

[2] = mouse, in vivo
SHIP1 = biological target: T1, SHIP1 (Mus musculus, UniProt Q9ES52); experiment: Malachite Green phosphate release assay, SHIP1; type: biochemical; details: at 1 mM
T1 construct: The asterisk in lanes 1 and 3 indicates the ˜145 kD full-length SHIP protein; His tag (C); made in house; host or cells: E. coli Rosetta-Gami 2 (DE3) pLys
T1 sequence (Q9ES52 1-1191): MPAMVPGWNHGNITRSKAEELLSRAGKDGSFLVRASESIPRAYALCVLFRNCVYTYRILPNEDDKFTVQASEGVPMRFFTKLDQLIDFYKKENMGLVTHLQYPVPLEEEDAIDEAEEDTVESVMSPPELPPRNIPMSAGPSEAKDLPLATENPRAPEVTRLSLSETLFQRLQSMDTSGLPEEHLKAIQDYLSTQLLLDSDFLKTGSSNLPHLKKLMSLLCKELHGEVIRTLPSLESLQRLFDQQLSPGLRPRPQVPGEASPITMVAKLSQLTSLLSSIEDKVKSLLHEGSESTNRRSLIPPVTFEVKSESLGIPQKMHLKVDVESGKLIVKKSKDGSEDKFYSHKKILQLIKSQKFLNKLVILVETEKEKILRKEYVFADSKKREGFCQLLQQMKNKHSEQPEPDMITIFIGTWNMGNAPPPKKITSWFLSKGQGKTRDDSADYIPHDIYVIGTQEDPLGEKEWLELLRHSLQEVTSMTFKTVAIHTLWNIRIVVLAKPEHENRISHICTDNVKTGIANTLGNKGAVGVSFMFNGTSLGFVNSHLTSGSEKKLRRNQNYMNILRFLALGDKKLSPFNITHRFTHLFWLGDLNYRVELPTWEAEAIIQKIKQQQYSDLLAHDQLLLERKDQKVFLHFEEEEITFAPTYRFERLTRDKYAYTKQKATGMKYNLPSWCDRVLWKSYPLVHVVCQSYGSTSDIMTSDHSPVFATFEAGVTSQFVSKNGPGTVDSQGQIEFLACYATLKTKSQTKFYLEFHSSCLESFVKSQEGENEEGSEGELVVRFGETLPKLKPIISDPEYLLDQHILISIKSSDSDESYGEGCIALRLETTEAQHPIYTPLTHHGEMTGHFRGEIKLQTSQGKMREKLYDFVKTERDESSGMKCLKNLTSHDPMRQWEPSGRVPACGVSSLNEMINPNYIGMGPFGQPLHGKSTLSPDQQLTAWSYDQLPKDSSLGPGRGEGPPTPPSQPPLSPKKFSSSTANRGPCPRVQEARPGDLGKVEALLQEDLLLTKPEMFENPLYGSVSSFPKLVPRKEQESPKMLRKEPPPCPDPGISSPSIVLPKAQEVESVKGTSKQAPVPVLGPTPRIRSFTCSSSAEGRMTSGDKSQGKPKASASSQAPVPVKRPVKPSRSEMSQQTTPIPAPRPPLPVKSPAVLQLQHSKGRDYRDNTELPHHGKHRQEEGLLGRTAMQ

Row | SMILES | allogeneic T cell priming by splenocytes from treated mice ([1]; splenocytes from three NSC13480 treated mice as stimulators, MHC mismatched responders) | pulmonary myeloid infiltration and lung consolidation [2] | inhibition of SHIP1 (SHIP1) | ability of splenocytes from treated mice to stimulate allogeneic T cell responses ([1]; H2b mice treated daily i.p. 60 μM for 7 days, H2d responder splenocytes)
1 | OC(c1cc(-c2ccccc2)nc2c1ccc1ccccc12)C1CCCCN1 (stereo not shown) [NSC13480, (2-phenylbenzo[h]quinolin-4-yl)-piperidin-2-ylmethanol] | profound inhibition | – | – | –
2 | CC(C)CCC[C@@H](C)[C@H]1CC[C@H]2[C@@H]3CC[C@H]4C[C@H](N)CC[C@]4(C)[C@H]3CC[C@]12C [NSC23922, (3R,5S,8R,9S,10S,13R,14S,17R)-10,13-dimethyl-17-[(2R)-6-methylheptan-2-yl]-2,3,4,5,6,7,8,9,11,12,14,15,16,17-tetradecahydro-1H-cyclopenta[a]phenanthren-3-amine] | – | absence of the pulmonary myeloid infiltration and lung consolidation | full inhibition | profoundly impaired

— US9006221B2, “Method of modulating ship activity” (H. Lee Moffitt Cancer Center and Reserach Institute, Inc., priority 2008, dated 2015)
